The text below walks through data of US20220389007A1, “INHIBITORS OF HUMAN IMMUNODEFICIENCY VIRUS REPLICATION” (VIIV HEALTHCARE UK (No. 5) LIMITED, priority 2019, published 2022).

In one data set the test system is recombinant NL4-3 virus. In words: HIV cell culture assay (antiviral activity, luciferase readout). The data set is classed as cell-based. The following applies: Human immunodeficiency virus 1, NL43, MT2, MT-2 cells infected for 4-5 days with recombinant NL4-3 virus carrying Renilla luciferase. In short, it runs like this: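 MT-2 cells infected for 4-5 days with NL4-3 reference virus carrying Renilla luciferase in place of part of nef, in presence of serial compound dilutions. Luciferase read with live-cell substrate; EC50 from median effect equation fit.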

Data set [1] can be described thus: Compound cytotoxicity, XTT-based colorimetric assay. Conditions: human; uninfected MT2 cells, day 4, XTT assay. The data set is classed as cell-based. An outline of the steps: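 Run under the antiviral-assay protocol but without virus. Viability was read on day 4 and CC50 values were derived from the readout.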
Background: Formazan colour is commonly taken as a measure of viable cells.

A word on the EC50: it is the concentration that produces a half-maximal response. For orientation: CC50 means the concentration giving 50% cytotoxicity. Low values mean harm at low concentration, high ones better tolerance by the cells. In the case of `Cn1nc(NS(C)(=O)=O)c2c(Cl)ccc(-n3c([C@H](Cc4cc(F)cc(F)c4)NC(=O)Cn4nc(C(F)F)c5c4C(F)(F)[C@@H]4C[C@H]54)nc4nc(-n5cc(C(F)(F)F)cn5)ccc4c3=O)c21` (atropisomer, axis not shown; (P)) [Example 66, N-((S)-1-((3P)-3-(4-chloro-1-methyl-3-(methylsulfonamido)-1H-indazol-7-yl)-4-oxo-7-(4-(trifluoromethyl)-1H-pyrazol-1-yl)-3,4-dihydropyrido[2,3-d]pyrimidin-2-yl)-2-(3,5-difluorophenyl)ethyl)-2-((3bS,4aR)-3-(difluoromethyl)-5,5-difluoro-3b,4,4a,5-tetrahydro-1H-cyclopropa[3,4]cyclopenta[1,2-c]pyrazol-1-yl)acetamide], the EC50 in the data set with recombinant NL4-3 virus stood at 0.07 nM. Moreover, the cytotoxic concentration (CC50) at 4 day in data set [1] was above 100 nM.

Regarding `Cc1nc2ccc(-c3ccc4c(=O)n(-c5ccc(Cl)c6c(NS(C)(=O)=O)nn(C)c56)c([C@H](Cc5cc(F)cc(F)c5)NC(=O)Cn5nc(C(F)F)c6c5C(F)(F)[C@@H]5C[C@H]65)nc4n3)cc2s1` (atropisomer, axis not shown; (P)) [Example 67, N-((S)-1-((3P)-3-(4-chloro-1-methyl-3-(methylsulfonamido)-1H-indazol-7-yl)-7-(2-methylbenzo[d]thiazol-6-yl)-4-oxo-3,4-dihydropyrido[2,3-d]pyrimidin-2-yl)-2-(3,5-difluorophenyl)ethyl)-2-((3bS,4aR)-3-(difluoromethyl)-5,5-difluoro-3b,4,4a,5-tetrahydro-1H-cyclopropa[3,4]cyclopenta[1,2-c]pyrazol-1-yl)acetamide], the EC50 in the data set on recombinant NL4-3 virus worked out at 0.55 nM. The compound also yielded a CC50 at 4 day in data set [1] above 100 nM.

As to `Cn1nccc1-c1ccc2c(=O)n(-c3ccc(Cl)c4c(NS(C)(=O)=O)nn(C)c34)c([C@H](Cc3cc(F)cc(F)c3)NC(=O)Cn3nc(C(F)F)c4c3C(F)(F)[C@@H]3C[C@H]43)nc2n1` (atropisomer, axis not shown; (P)) [Example 68, N-((S)-1-((3P)-3-(4-chloro-1-methyl-3-(methylsulfonamido)-1H-indazol-7-yl)-7-(1-methyl-1H-pyrazol-5-yl)-4-oxo-3,4-dihydropyrido[2,3-d]pyrimidin-2-yl)-2-(3,5-difluorophenyl)ethyl)-2-((3bS,4aR)-3-(difluoromethyl)-5,5-difluoro-3b,4,4a,5-tetrahydro-1H-cyclopropa[3,4]cyclopenta[1,2-c]pyrazol-1-yl)acetamide], the EC50 in the data set with recombinant NL4-3 virus amounted to 0.049 nM. Besides, the CC50 at 4 day in data set [1] is above 100 nM.

For the compound `CC(C)Cn1nccc1-c1ccc2c(=O)n(-c3ccc(Cl)c4c(NS(C)(=O)=O)nn(C)c34)c([C@H](Cc3cc(F)cc(F)c3)NC(=O)Cn3nc(C(F)F)c4c3C(F)(F)[C@@H]3C[C@H]43)nc2n1` (atropisomer, axis not shown; (P)) [Example 69, N-((S)-1-((3P)-3-(4-chloro-1-methyl-3-(methylsulfonamido)-1H-indazol-7-yl)-7-(1-isobutyl-1H-pyrazol-5-yl)-4-oxo-3,4-dihydropyrido[2,3-d]pyrimidin-2-yl)-2-(3,5-difluorophenyl)ethyl)-2-((3bS,4aR)-3-(difluoromethyl)-5,5-difluoro-3b,4,4a,5-tetrahydro-1H-cyclopropa[3,4]cyclopenta[1,2-c]pyrazol-1-yl)acetamide], the EC50 in the data set on recombinant NL4-3 virus worked out at 0.099 nM. The same compound displayed a CC50 at 4 day in data set [1] above 100 nM.

`Cc1cc(-c2ccc3c(=O)n(-c4ccc(Cl)c5c(NS(C)(=O)=O)nn(C)c45)c([C@H](Cc4cc(F)cc(F)c4)NC(=O)Cn4nc(C(F)F)c5c4C(F)(F)[C@@H]4C[C@H]54)nc3n2)n(C)n1` (atropisomer, axis not shown; (P)) [Example 70, N-((S)-1-((3P)-3-(4-chloro-1-methyl-3-(methylsulfonamido)-1H-indazol-7-yl)-7-(1,3-dimethyl-1H-pyrazol-5-yl)-4-oxo-3,4-dihydropyrido[2,3-d]pyrimidin-2-yl)-2-(3,5-difluorophenyl)ethyl)-2-((3bS,4aR)-3-(difluoromethyl)-5,5-difluoro-3b,4,4a,5-tetrahydro-1H-cyclopropa[3,4]cyclopenta[1,2-c]pyrazol-1-yl)acetamide]: the concentration for a half-maximal effect (EC50) with recombinant NL4-3 virus worked out at 0.041 nM. Also, the CC50 at 4 day in data set [1] was above 100 nM.

As to `Cn1nc(NS(C)(=O)=O)c2c(Cl)ccc(-n3c([C@H](Cc4cc(F)cc(F)c4)NC(=O)Cn4nc(C(F)F)c5c4C(F)(F)[C@@H]4C[C@H]54)nc4nc(-c5ccc6ncsc6c5)ccc4c3=O)c21` (atropisomer, axis not shown; (P)) [Example 71, N-((S)-1-(7-(benzo[d]thiazol-6-yl)-(3P)-3-(4-chloro-1-methyl-3-(methylsulfonamido)-1H-indazol-7-yl)-4-oxo-3,4-dihydropyrido[2,3-d]pyrimidin-2-yl)-2-(3,5-difluorophenyl)ethyl)-2-((3bS,4aR)-3-(difluoromethyl)-5,5-difluoro-3b,4,4a,5-tetrahydro-1H-cyclopropa[3,4]cyclopenta[1,2-c]pyrazol-1-yl)acetamide], the EC50 in the data set with recombinant NL4-3 virus is 0.097 nM. Besides, the 50% cytotoxic concentration (CC50) at 4 day in data set [1] is above 100 nM.

For `Cn1nc(NS(C)(=O)=O)c2c(Cl)ccc(-n3c([C@H](Cc4cc(F)cc(F)c4)NC(=O)Cn4nc(C(F)F)c5c4C(F)(F)[C@@H]4C[C@H]54)nc4nc(-c5ccc6scnc6c5)ccc4c3=O)c21` (atropisomer, axis not shown; (P)) [Example 72, N-((S)-1-(7-(benzo[d]thiazol-5-yl)-(3P)-3-(4-chloro-1-methyl-3-(methylsulfonamido)-1H-indazol-7-yl)-4-oxo-3,4-dihydropyrido[2,3-d]pyrimidin-2-yl)-2-(3,5-difluorophenyl)ethyl)-2-((3bS,4aR)-3-(difluoromethyl)-5,5-difluoro-3b,4,4a,5-tetrahydro-1H-cyclopropa[3,4]cyclopenta[1,2-c]pyrazol-1-yl)acetamide], in the data set with recombinant NL4-3 virus, the concentration for a half-maximal effect (EC50) turned out to be 0.11 nM. This compound registered a CC50 at 4 day in data set [1] above 100 nM.

Regarding `Cn1nc(NS(C)(=O)=O)c2c(Cl)ccc(-n3c([C@H](Cc4cc(F)cc(F)c4)NC(=O)Cn4nc(C(F)F)c5c4C(F)(F)[C@@H]4C[C@H]54)nc4nc(-c5ccn(CC(F)(F)F)n5)ccc4c3=O)c21` (atropisomer, axis not shown; (P)) [Example 73, N-((S)-1-((3P)-3-(4-chloro-1-methyl-3-(methylsulfonamido)-1H-indazol-7-yl)-4-oxo-7-(1-(2,2,2-trifluoroethyl)-1H-pyrazol-3-yl)-3,4-dihydropyrido[2,3-d]pyrimidin-2-yl)-2-(3,5-difluorophenyl)ethyl)-2-((3bS,4aR)-3-(difluoromethyl)-5,5-difluoro-3b,4,4a,5-tetrahydro-1H-cyclopropa[3,4]cyclopenta[1,2-c]pyrazol-1-yl)acetamide], the EC50 with recombinant NL4-3 virus was found to be 0.029 nM. Moreover, the CC50 at 4 day in data set [1] is above 100 nM.

On to `Cn1nc(NS(C)(=O)=O)c2c(Cl)ccc(-n3c([C@H](Cc4cc(F)cc(F)c4)NC(=O)Cn4nc(C(F)F)c5c4C(F)(F)[C@@H]4C[C@H]54)nc4nc(-c5cnn(C6CC6)c5)ccc4c3=O)c21` (atropisomer, axis not shown; (P)) [Example 74, N-((S)-1-((3P)-3-(4-chloro-1-methyl-3-(methylsulfonamido)-1H-indazol-7-yl)-7-(1-cyclopropyl-1H-pyrazol-4-yl)-4-oxo-3,4-dihydropyrido[2,3-d]pyrimidin-2-yl)-2-(3,5-difluorophenyl)ethyl)-2-((3bS,4aR)-3-(difluoromethyl)-5,5-difluoro-3b,4,4a,5-tetrahydro-1H-cyclopropa[3,4]cyclopenta[1,2-c]pyrazol-1-yl)acetamide], for which, in the data set on recombinant NL4-3 virus, the EC50 is 0.054 nM. This compound registered a CC50 at 4 day in data set [1] above 100 nM.

`Cn1nc(NS(C)(=O)=O)c2c(Cl)ccc(-n3c([C@H](Cc4cc(F)cc(F)c4)NC(=O)Cn4nc(C(F)F)c5c4C(F)(F)[C@@H]4C[C@H]54)nc4nc(-c5cnn(CC(F)(F)F)c5)ccc4c3=O)c21` (atropisomer, axis not shown; (P)) [Example 75, N-((S)-1-((3P)-3-(4-chloro-1-methyl-3-(methylsulfonamido)-1H-indazol-7-yl)-4-oxo-7-(1-(2,2,2-trifluoroethyl)-1H-pyrazol-4-yl)-3,4-dihydropyrido[2,3-d]pyrimidin-2-yl)-2-(3,5-difluorophenyl)ethyl)-2-((3bS,4aR)-3-(difluoromethyl)-5,5-difluoro-3b,4,4a,5-tetrahydro-1H-cyclopropa[3,4]cyclopenta[1,2-c]pyrazol-1-yl)acetamide]: in the data set on recombinant NL4-3 virus, the EC50 stood at 0.09 nM. The 50% cytotoxic concentration (CC50) at 4 day in data set [1] is above 100 nM.

As to `Cn1nc(NS(C)(=O)=O)c2c(Cl)ccc(-n3c([C@H](Cc4cc(F)cc(F)c4)NC(=O)Cn4nc(C(F)F)c5c4C(F)(F)[C@@H]4C[C@H]54)nc4nc(-c5cnn(CCF)c5)ccc4c3=O)c21` (atropisomer, axis not shown; (P)) [Example 76, N-((S)-1-((3P)-3-(4-chloro-1-methyl-3-(methylsulfonamido)-1H-indazol-7-yl)-7-(1-(2-fluoroethyl)-1H-pyrazol-4-yl)-4-oxo-3,4-dihydropyrido[2,3-d]pyrimidin-2-yl)-2-(3,5-difluorophenyl)ethyl)-2-((3bS,4aR)-3-(difluoromethyl)-5,5-difluoro-3b,4,4a,5-tetrahydro-1H-cyclopropa[3,4]cyclopenta[1,2-c]pyrazol-1-yl)acetamide], the EC50 in the data set on recombinant NL4-3 virus was determined as 0.11 nM. For the same compound, in data set [1], the cytotoxic concentration (CC50) at 4 day is above 100 nM.

For `Cn1nc(NS(C)(=O)=O)c2c(Cl)ccc(-n3c([C@H](Cc4cc(F)cc(F)c4)NC(=O)Cn4nc(C(F)F)c5c4C(F)(F)[C@@H]4C[C@H]54)nc4nc(-c5ccnn5C5CC5)ccc4c3=O)c21` (atropisomer, axis not shown; (P)) [Example 77, N-((S)-1-((3P)-3-(4-chloro-1-methyl-3-(methylsulfonamido)-1H-indazol-7-yl)-7-(1-cyclopropyl-1H-pyrazol-5-yl)-4-oxo-3,4-dihydropyrido[2,3-d]pyrimidin-2-yl)-2-(3,5-difluorophenyl)ethyl)-2-((3bS,4aR)-3-(difluoromethyl)-5,5-difluoro-3b,4,4a,5-tetrahydro-1H-cyclopropa[3,4]cyclopenta[1,2-c]pyrazol-1-yl)acetamide], in the data set on recombinant NL4-3 virus, the half-maximal effective concentration (EC50) was determined as 0.073 nM. The compound also displayed a CC50 at 4 day in data set [1] above 100 nM.
